# From patent US10709711B2 (G1 Therapeutics, Inc., priority 2013, dated 2020)
# Tests used:
# [1] = tested on: SupT1 cells (human T-cell lymphoblastic leukemia); assay: Inhibition of cellular proliferation, SupT1 cells (CellTiter-Glo); format: cell-based; details: SUP-T1, 96 h, cell viability after four days, nine point dilution series 10 uM to 1 nM
# Procedure: (§1) The SupT1 cells were seeded in Costar (Tewksbury, Mass.) 3093 96 well tissue culture treated white walled/clear bottom plates. A nine point dose response dilution series from 10 uM to 1 nM was performed and cell viability was determined after four days as indicated using the CellTiter-Glo® assay (CTG; Promega, Madison, Wis., United States of America) following the manufacturer's recommendations. Plates were read on a BioTek (Winooski, Vt.) Syngergy2 multi-mode plate reader. The Relative Light Units (RLU) were plotted as a result of variable molar concentration and data was analyzed using Graphpad (LaJolla, Calif.) Prism 5 statistical software to determine the IC50 for each compound.
# (§2) The compounds listed in Table 1 were tested for the inhibition of cellular proliferation using SupT1 (human T-cell lymphoblastic leukemia) and Daudi (human B-lymphoblastoid cell from Burkitt's Lymphoma patient).
# [2] = tested on: Daudi (human B-lymphoblastoid cell from Burkitt's Lymphoma patient); assay: Inhibition of cellular proliferation, Daudi cells (CellTiter-Glo); format: cell-based; details: EC50 measured as illustrated in Example 150 (CellTiter-Glo)
# Procedure: as §1, §2
EC50 [1] [nM],EC50 [2] [nM],Structure (SMILES)
15,3340,CCC(C)CN1CCN(c2ccc(Nc3ncc4cc5n(c4n3)C3(CCCC3)CNC5=O)nc2)CC1 (stereo not drawn) [AAA]
58,233,CC(C)N1CCN(c2ccc(Nc3ncc4cc5n(c4n3)C3(CCCCC3)CNC5=O)nc2)C[C@@H]1C [AA]
57,281,C[C@H](O)CN1CCN(c2ccc(Nc3ncc4cc5n(c4n3)C3(CCCCC3)CNC5=O)nc2)CC1 [A]
41,758,CN1CCN(C(=O)c2ccc(Nc3ncc4cc5n(c4n3)C3(CCCC3)CNC5=O)nc2)CC1 [BBB]
70,472,CC1(C)CN(c2ccc(Nc3ncc4cc5n(c4n3)C3(CCCCC3)CNC5=O)nc2)CCN1C1CC1 [BB]
96,385,C[C@H]1CN(c2ccc(Nc3ncc4cc5n(c4n3)C3(CCCCC3)CNC5=O)nc2)CCN1CC1CC1 [B]
133,1860,CC(C)(C)CCN1CCN(c2ccc(Nc3ncc4cc5n(c4n3)C3(CCCC3)CNC5=O)nc2)CC1(C)C [CCC]
17,111,CCN(CC)C1CCN(c2ccc(Nc3ncc4cc5n(c4n3)C3(CCCCC3)CNC5=O)nc2)CC1 [CC]
74,373,C[C@H](O)CN1CCN(c2ccc(Nc3ncc4cc5n(c4n3)C3(CCCCC3)CNC5=O)nc2)C[C@@H]1C [C]
161,839,C[C@@H]1CN(c2ccc(Nc3ncc4cc5n(c4n3)C3(CCCC3)CNC5=O)nc2)C[C@H](C)N1 [DDD]
105,546,C[C@@H]1CN(c2ccc(Nc3ncc4cc5n(c4n3)C3(CCCCC3)CNC5=O)nc2)C[C@H](C)N1C [DD]
55,297,CN1CCN(c2ccc(Nc3ncc4cc5n(c4n3)C3(CCCCC3)CNC5=O)nc2)CC1(C)C [D]
65,475,CC(C)(O)CN1CCN(c2ccc(Nc3ncc4cc5n(c4n3)C3(CCCC3)CNC5=O)nc2)CC1 [EEE]
89,259,CC(C)N1CCN(Cc2ccc(Nc3ncc4cc5n(c4n3)C3(CCCCC3)CNC5=O)nc2)CC1 [EE]
9.3,140,CC(C)C1CN(c2ccc(Nc3ncc4cc5n(c4n3)C3(CCCCC3)CNC5=O)nc2)CCN1 (stereo not drawn) [E]
90,380,CCN1[C@H](C)CN(c2ccc(Nc3ncc4cc5n(c4n3)C3(CCCCC3)CNC5=O)nc2)C[C@@H]1C [FF]
107,692,O=C1NCC2(CCCCC2)n2c1cc1cnc(Nc3ccc(N4CCN(C5CCC5)CC4)cn3)nc12 [F]
161,586,CC(C)N1CCN(c2ccc(Nc3ncc4cc5n(c4n3)C3(CCCC3)CNC5=O)nc2)CC1C (stereo not drawn) [GGG]
57,,CC(C)N1CCN(c2ccc(Nc3ncc4cc5n(c4n3)C3(CCCCC3)CNC5=O)nc2)CC1 [GG]
156,1530,CC1CN(c2ccc(Nc3ncc4cc5n(c4n3)C3(CCCCC3)CNC5=O)nc2)CCN1CCC(C)(C)C (stereo not drawn) [G]
85,984,O=C1NCC2(CCCC2)n2c1cc1cnc(Nc3ccc(N4CCC(N5CCCCC5)CC4)cn3)nc12 [HHH]
79,681,O=C1NCC2(CCCCC2)n2c1cc1cnc(Nc3ccc(N4CCN(CC5CC5)CC4)cn3)nc12 [HH]

EC50 [1] [nM],EC50 [2] [nM],Structure (SMILES)
118,719,CC1(C)CN(c2ccc(Nc3ncc4cc5n(c4n3)C3(CCCCC3)CNC5=O)nc2)CCN1CC1CC1 [H]
230,775,CC(C)N1CCN(c2ccc(Nc3ncc4cc5n(c4n3)C3(CCCC3)CNC5=O)nc2)CC1 [III]
42,347,CC(C)N1CCN(C(=O)c2ccc(Nc3ncc4cc5n(c4n3)C3(CCCCC3)CNC5=O)nc2)CC1 [II]
39,249,CC1(C)CN(c2ccc(Nc3ncc4cc5n(c4n3)C3(CCCCC3)CNC5=O)nc2)CCN1 [I]
143,448,CCC(C)CN1[C@H](C)CN(c2ccc(Nc3ncc4cc5n(c4n3)C3(CCCC3)CNC5=O)nc2)C[C@@H]1C (stereo partly drawn) [JJJ]
49,389,CCN(CC)C1CCN(C(=O)c2ccc(Nc3ncc4cc5n(c4n3)C3(CCCCC3)CNC5=O)nc2)C1 (stereo not drawn) [JJ]
47,362,C[C@@H]1CN(c2ccc(Nc3ncc4cc5n(c4n3)C3(CCCCC3)CNC5=O)nc2)CCN1C[C@@H](C)O [J]
112,147,C[C@H]1CN(c2ccc(Nc3ncc4cc5n(c4n3)C3(CCCCC3)CNC5=O)nc2)CCN1 [KK]
134,167,CC1CCN(C2CCN(c3ccc(Nc4ncc5cc6n(c5n4)C4(CCCCC4)CNC6=O)nc3)CC2)C1 (stereo not drawn) [K]
241,1550,CCN(CC)C1CCN(c2ccc(Nc3ncc4cc5n(c4n3)C3(CCCC3)CNC5=O)nc2)CC1 [LLL]
84,501,O=C1NCC2(CCCCC2)n2c1cc1cnc(Nc3ccc(C(=O)N4CCN(C5CCC5)CC4)cn3)nc12 [LL]
153,1260,CC(C)N1CCN(c2ccc(Nc3ncc4cc5n(c4n3)C3(CCCCC3)CNC5=O)nc2)C[C@H]1C [L]
37,294,CCOCCN1CCN(c2ccc(Nc3ncc4cc5n(c4n3)C3(CCCC3)CNC5=O)nc2)CC1 [MMM]
84,681,C[C@@H]1CN(c2ccc(Nc3ncc4cc5n(c4n3)C3(CCCCC3)CNC5=O)nc2)C[C@H](C)N1C[C@@H](C)O [MM]
184,1460,C[C@@H]1CN(c2ccc(Nc3ncc4cc5n(c4n3)C3(CCCCC3)CNC5=O)nc2)C[C@H](C)N1CCC(C)(C)C [M]
160,519,CC1CN(c2ccc(Nc3ncc4cc5n(c4n3)C3(CCCC3)CNC5=O)nc2)CCN1CC1CC1 (stereo not drawn) [NNN]
84,1040,C[C@@H]1CN(c2ccc(Nc3ncc4cc5n(c4n3)C3(CCCCC3)CNC5=O)nc2)CCN1C [NN]
34,122,O=C1NCC2(CCCCC2)n2c1cc1cnc(Nc3ccc(N4CCC(N5CCCCC5)CC4)cn3)nc12 [N]
104,668,O=C1NCC2(CCCC2)n2c1cc1cnc(Nc3ccc(C(=O)N4CCN(CC5CC5)CC4)cn3)nc12 [OOO]
114,880,CC1CN(c2ccc(Nc3ncc4cc5n(c4n3)C3(CCCCC3)CNC5=O)nc2)CC(C)N1CC1CC1 (stereo not drawn) [OO]
44,123,CN(C)C1CCN(c2ccc(Nc3ncc4cc5n(c4n3)C3(CCCCC3)CNC5=O)nc2)CC1 [O]
3040,,CC1CN(c2ccc(Nc3ncc4cc5n(c4n3)C3(CCCC3)CNC5=O)nc2)CC(C)N1CCC(C)(C)C (stereo not drawn) [PPP]

EC50 [1] [nM],EC50 [2] [nM],Structure (SMILES)
81,260,CC(C)N1CCN(c2ccc(Nc3ncc4cc5n(c4n3)C3(CCCCC3)CNC5=O)nc2)CC1C (stereo not drawn) [PP]
33,140,C[C@@H]1CN(c2ccc(Nc3ncc4cc5n(c4n3)C3(CCCCC3)CNC5=O)nc2)C[C@H](C)N1 [P]
258,485,O=C1NCC2(CCCC2)n2c1cc1cnc(Nc3ccc(N4CCNCC4)cn3)nc12 [QQQ]
68,851,CCN(CC)C1CCN(c2ccc(Nc3ncc4cc5n(c4n3)C3(CCCCC3)CNC5=O)nc2)C1 (stereo not drawn) [QQ]
40,561,O=C1NCC2(CCCCC2)n2c1cc1cnc(Nc3ccc(N4CCNCC4)cn3)nc12 [Q]
278,2010,CC(C)N1CCN(c2ccc(Nc3ncc4cc5n(c4n3)C3(CCCC3)CNC5=O)nn2)CC1 [RRR]
102,158,CCN(CC)C1CCN(C2CCN(c3ccc(Nc4ncc5cc6n(c5n4)C4(CCCCC4)CNC6=O)nc3)CC2)C1 (stereo not drawn) [RR]
43,299,C[C@H]1CN(c2ccc(Nc3ncc4cc5n(c4n3)C3(CCCCC3)CNC5=O)nc2)CCN1C [R]
305,> 3000,O=C1NCC2(CCCC2)n2c1cc1cnc(Nc3ccc(N4CCOCC4)nn3)nc12 [SSS]
11,967,CN(C)C1CCN(c2ccc(Nc3ncc4cc5n(c4n3)C3(CCCCC3)CNC5=O)nn2)CC1 [SS]
110,634,C[C@@H](O)CN1CCN(c2ccc(Nc3ncc4cc5n(c4n3)C3(CCCCC3)CNC5=O)nc2)CC1 [S]
587,3300,CN(C)C1CCN(c2ccc(Nc3ncc4cc5n(c4n3)C3(CCCC3)CNC5=O)nn2)CC1 [TTT]
92,589,CC(C)N1CCN(c2ccc(Nc3ncc4cc5n(c4n3)C3(CCCCC3)CNC5=O)nn2)CC1 [TT]
113,392,CN1CCN(c2ccc(Nc3ncc4cc5n(c4n3)C3(CCCCC3)CNC5=O)nc2)CC1 [T]
311,1420,CC(C)[C@H]1CNC(=O)c2cc3cnc(Nc4ccc(N5CCNCC5)cn4)nc3n21 [UUU]
228,3160,CCN(CC)C1CCN(c2ccc(Nc3ncc4cc5n(c4n3)C3(CCCC3)CNC5=O)nc2)C1 (stereo not drawn) [UU]
48,363,O=C1NCC2(CCCCC2)n2c1cc1cnc(Nc3ccc(N4CCC(N5CCOCC5)CC4)cn3)nc12 [U]
224,1070,CCC(C)[C@@H]1CNC(=O)c2cc3cnc(Nc4ccc(N5CCNCC5)cn4)nc3n21 (stereo partly drawn) [VVV]
115,683,C[C@@H](O)CN1CCN(c2ccc(Nc3ncc4cc5n(c4n3)C3(CCCC3)CNC5=O)nc2)C[C@@H]1C [VV]
35,194,C[C@@H]1CN(c2ccc(Nc3ncc4cc5n(c4n3)C3(CCCCC3)CNC5=O)nc2)CCN1 [V]
